Here are results for 8 molecules from ChEMBL document CHEMBL5291721, “A preclinical secondary pharmacology resource illuminates target-adverse drug reaction associations of marketed drugs” (Nat Commun, 2023).

In one test the target is T1, Adenosine receptor A1 (Homo sapiens, UniProt P30542).
T1 sequence (P30542 whole entry): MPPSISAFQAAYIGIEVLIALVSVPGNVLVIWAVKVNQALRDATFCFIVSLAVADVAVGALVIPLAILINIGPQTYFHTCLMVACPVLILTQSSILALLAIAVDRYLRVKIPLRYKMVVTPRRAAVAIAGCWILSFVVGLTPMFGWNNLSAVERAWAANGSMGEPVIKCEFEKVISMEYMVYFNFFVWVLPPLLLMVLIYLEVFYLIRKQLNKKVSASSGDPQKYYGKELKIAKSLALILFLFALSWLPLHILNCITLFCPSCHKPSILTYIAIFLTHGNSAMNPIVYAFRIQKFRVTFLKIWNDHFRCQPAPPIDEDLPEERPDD

Test [1] addresses T2, Type-1 angiotensin II receptor (Homo sapiens, UniProt P30556).
T2 sequence (P30556 whole entry): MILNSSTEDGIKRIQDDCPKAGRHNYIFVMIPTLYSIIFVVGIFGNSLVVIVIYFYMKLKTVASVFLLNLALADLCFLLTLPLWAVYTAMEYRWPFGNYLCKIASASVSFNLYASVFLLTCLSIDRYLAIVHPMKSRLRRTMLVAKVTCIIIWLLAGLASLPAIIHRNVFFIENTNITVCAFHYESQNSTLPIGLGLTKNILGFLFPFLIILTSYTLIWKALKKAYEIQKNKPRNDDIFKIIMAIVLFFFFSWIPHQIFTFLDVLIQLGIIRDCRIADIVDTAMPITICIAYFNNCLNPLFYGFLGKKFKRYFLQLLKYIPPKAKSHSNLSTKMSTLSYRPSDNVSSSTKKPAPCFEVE

Test [2] has as its target T3, Cholecystokinin receptor type A (Homo sapiens, UniProt P32238).
T3 sequence (P32238 whole entry): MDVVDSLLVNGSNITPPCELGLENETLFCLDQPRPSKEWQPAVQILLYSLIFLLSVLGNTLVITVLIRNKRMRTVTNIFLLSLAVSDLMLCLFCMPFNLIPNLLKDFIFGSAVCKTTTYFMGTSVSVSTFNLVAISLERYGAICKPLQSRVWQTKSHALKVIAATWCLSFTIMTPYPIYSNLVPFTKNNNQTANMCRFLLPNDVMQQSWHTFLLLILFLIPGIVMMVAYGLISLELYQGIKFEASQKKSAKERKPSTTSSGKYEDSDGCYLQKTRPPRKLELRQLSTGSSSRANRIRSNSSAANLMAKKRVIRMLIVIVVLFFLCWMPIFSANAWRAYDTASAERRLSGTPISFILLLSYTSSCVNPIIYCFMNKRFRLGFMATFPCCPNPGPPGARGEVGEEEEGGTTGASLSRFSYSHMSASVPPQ

The target in test [3] is T4, Muscarinic acetylcholine receptor M2 (Homo sapiens, UniProt P08172).
T4 sequence (P08172 whole entry): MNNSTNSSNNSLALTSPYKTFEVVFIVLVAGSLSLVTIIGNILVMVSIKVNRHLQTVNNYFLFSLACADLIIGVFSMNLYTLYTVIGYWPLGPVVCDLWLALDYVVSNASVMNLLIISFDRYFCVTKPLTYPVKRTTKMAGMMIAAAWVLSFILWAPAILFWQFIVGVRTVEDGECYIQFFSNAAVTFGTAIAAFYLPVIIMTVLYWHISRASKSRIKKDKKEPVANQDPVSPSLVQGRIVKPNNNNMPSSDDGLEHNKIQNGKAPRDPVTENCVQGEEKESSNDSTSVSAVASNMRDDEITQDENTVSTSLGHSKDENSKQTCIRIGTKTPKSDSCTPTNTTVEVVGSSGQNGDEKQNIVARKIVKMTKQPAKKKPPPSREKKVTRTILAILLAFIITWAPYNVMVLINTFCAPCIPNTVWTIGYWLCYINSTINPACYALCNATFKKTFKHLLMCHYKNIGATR
In kind it is functional, cell-based.

Test [4] has as its target Neuronal acetylcholine receptor subunit alpha-4 (Homo sapiens, UniProt P43681).
The target of the next test is Histamine H1 receptor (Homo sapiens, UniProt P35367).
Histamine H1 receptor, sequence (P35367 whole entry): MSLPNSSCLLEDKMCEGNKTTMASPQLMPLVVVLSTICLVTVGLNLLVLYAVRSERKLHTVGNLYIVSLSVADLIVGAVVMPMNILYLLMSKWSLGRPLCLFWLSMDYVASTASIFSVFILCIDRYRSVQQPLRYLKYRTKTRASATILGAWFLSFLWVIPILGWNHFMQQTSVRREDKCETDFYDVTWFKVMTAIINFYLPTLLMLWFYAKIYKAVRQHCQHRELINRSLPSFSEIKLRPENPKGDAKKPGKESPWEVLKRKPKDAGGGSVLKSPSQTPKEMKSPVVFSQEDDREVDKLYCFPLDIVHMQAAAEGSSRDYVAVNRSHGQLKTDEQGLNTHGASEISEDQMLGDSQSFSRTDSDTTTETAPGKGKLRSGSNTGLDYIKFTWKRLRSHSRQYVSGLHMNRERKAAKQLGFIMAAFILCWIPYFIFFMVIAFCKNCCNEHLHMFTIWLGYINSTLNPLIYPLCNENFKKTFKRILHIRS
Test [5] deals with 5-hydroxytryptamine receptor 2A (Homo sapiens, UniProt P28223). In kind it is functional, cell-based.
5-hydroxytryptamine receptor 2A, sequence (P28223 whole entry): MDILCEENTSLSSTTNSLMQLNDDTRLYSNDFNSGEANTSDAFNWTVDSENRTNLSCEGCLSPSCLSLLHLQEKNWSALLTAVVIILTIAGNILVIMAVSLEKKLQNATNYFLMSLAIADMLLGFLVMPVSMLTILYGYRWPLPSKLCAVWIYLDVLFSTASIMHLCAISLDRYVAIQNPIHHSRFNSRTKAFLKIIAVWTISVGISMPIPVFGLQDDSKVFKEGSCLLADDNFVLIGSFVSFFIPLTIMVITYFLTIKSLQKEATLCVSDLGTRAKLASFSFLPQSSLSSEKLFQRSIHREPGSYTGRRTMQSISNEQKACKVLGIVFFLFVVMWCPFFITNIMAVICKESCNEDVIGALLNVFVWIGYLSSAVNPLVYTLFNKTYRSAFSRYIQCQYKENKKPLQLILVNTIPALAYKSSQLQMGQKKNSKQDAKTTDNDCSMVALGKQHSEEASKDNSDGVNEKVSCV
Test [6] concerns the target T5, 5-hydroxytryptamine receptor 3A (Homo sapiens, UniProt P46098).
T5 sequence (P46098 whole entry): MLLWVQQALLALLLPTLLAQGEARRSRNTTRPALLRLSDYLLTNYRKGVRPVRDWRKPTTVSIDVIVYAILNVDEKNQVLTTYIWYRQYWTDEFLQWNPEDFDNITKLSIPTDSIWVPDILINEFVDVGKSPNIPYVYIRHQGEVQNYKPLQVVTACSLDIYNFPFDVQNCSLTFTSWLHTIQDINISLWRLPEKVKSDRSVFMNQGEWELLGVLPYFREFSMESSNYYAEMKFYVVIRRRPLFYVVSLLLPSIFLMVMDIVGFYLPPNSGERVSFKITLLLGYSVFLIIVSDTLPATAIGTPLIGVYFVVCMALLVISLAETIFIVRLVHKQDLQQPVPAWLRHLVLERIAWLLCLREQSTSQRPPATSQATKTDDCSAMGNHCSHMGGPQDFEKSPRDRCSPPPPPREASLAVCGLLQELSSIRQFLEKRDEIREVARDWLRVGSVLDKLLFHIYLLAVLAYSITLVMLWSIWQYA
Format: functional.

The target of test [7] is Delta-type opioid receptor (Homo sapiens, UniProt P41143).
Delta-type opioid receptor, sequence (P41143 whole entry): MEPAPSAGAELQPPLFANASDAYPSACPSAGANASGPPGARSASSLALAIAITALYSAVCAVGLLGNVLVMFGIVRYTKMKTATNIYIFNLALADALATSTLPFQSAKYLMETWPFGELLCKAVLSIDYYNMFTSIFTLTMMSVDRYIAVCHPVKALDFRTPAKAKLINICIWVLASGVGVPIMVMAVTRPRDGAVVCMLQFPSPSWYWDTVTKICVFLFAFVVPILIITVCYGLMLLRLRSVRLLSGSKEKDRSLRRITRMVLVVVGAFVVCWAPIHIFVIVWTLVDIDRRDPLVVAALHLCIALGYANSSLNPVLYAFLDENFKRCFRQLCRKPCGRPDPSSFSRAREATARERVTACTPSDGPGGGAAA
Test [8] deals with T6, Equilibrative nucleoside transporter 1 (Homo sapiens, UniProt Q99808).
T6 sequence (Q99808 whole entry): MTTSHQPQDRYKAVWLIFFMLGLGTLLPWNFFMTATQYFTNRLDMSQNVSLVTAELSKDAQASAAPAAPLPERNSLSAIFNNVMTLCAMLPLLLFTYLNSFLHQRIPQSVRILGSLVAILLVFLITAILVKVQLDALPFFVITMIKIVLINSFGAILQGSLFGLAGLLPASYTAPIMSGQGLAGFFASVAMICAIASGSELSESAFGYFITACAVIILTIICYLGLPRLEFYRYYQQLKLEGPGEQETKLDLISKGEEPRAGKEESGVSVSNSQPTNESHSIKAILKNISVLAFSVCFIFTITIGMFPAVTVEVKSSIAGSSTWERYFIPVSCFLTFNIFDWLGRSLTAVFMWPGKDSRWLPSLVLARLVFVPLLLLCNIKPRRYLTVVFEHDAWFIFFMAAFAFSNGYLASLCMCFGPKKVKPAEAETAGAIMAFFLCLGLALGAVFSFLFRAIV
Note: assay procedure not described here.

Neuronal acetylcholine receptor subunit alpha-4, sequence (P43681 whole entry): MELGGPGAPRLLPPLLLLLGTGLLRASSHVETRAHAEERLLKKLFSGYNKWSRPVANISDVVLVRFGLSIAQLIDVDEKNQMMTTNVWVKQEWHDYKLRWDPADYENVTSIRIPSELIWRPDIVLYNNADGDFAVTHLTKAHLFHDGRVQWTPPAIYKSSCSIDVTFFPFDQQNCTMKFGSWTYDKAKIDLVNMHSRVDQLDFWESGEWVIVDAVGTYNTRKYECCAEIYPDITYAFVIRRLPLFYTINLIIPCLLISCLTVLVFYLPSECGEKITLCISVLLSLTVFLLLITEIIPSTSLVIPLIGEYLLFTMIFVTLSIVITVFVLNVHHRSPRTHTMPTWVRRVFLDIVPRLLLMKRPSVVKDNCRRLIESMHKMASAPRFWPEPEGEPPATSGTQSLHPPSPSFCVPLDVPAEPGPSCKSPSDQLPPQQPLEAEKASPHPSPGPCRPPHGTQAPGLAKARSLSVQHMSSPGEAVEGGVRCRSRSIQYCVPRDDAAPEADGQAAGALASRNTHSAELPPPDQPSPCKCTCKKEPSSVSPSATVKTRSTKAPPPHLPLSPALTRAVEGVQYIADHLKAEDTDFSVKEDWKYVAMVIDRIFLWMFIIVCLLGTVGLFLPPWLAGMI

On to `COC(=O)C1=C(C)NC(C)=C(C(=O)OC2CCCN(Cc3ccccc3)C2)C1c1cccc([N+](=O)[O-])c1` (stereo not given) [BENIDIPINE], for which the AC50 (usually the concentration giving half of the maximal activity seen) on Adenosine receptor A1 was more than 30 µM; in [1], more than 30 µM; in test [2], more than 30 µM; in test [3], more than 30 µM; in test [4], more than 30 µM; on Histamine H1 receptor, 27 µM. For the same molecule, the AC50 in test [5] is more than 30 µM; in [6] it was more than 30 µM; in test [7], more than 30 µM; in test [8] it was 8.2 µM.
Turning to `C=CCC1(CC(C)C)C(=O)NC(=O)NC1=O` [BUTALBITAL], the half-maximal activity concentration (AC50) at Adenosine receptor A1 is more than 10 µM; in test [1], more than 30 µM; in test [2], more than 10 µM; in [3], more than 10 µM; in test [4], more than 10 µM; on Histamine H1 receptor it was more than 30 µM. Further, the AC50 is more than 10 µM in [5], more than 30 µM in test [6], more than 30 µM in test [7] and more than 10 µM in test [8].
With `O=C(O)C1=C(CSc2nnnn2CS(=O)(=O)O)CS[C@@H]2[C@H](NC(=O)[C@H](O)c3ccccc3)C(=O)N12` [CEFONICID], the AC50 (at Adenosine receptor A1; in test [1]; in [2]; in test [3]; in test [4]; on Histamine H1 receptor) was more than 30 µM in each case. For the same molecule, the AC50 in test [5], in test [6], in [7] and in test [8] was more than 30 µM in each case.
`CCN1CCN(C(=O)N[C@@H](C(=O)N[C@@H]2C(=O)N3C(C(=O)O)=C(CSc4nnnn4C)CS[C@H]23)c2ccc(O)cc2)C(=O)C1=O` [CEFOPERAZONE]: the AC50 (at Adenosine receptor A1; in test [1]; in test [2]; in test [3]; in [4]; at Histamine H1 receptor) was more than 30 µM throughout. Besides, the AC50 in test [5], in test [6], in [7] and in test [8] was more than 30 µM throughout.
Take `Cc1cc(O)c(C(=O)N[C@@H](C(=O)N[C@@H]2C(=O)N3C(C(=O)O)=C(CSc4nnnn4C)CS[C@H]23)c2ccc(O)cc2)cn1` [CEFPIRAMIDE]: the AC50 (at Adenosine receptor A1; in test [1]; in test [2]; in [3]; in test [4]; at Histamine H1 receptor) was more than 30 µM each time. The AC50 in test [5], in [6], in test [7] and in [8] was more than 30 µM in each case.
In the case of `Nc1nc(/C(=C/CC(=O)O)C(=O)N[C@@H]2C(=O)N3C(C(=O)O)=CCS[C@H]23)cs1` [CEFTIBUTEN], the AC50 (on Adenosine receptor A1; in [1]; in test [2]; in [3]; in [4]; at Histamine H1 receptor) was more than 30 µM throughout. Besides, the AC50 in test [5], in [6], in test [7] and in test [8] was more than 30 µM throughout.
`CC(=O)OCC(=O)[C@@]12N=C(C)O[C@@H]1C[C@H]1[C@@H]3CCC4=CC(=O)C=C[C@]4(C)[C@H]3[C@@H](O)C[C@@]12C` [DEFLAZACORT]: the AC50 (on Adenosine receptor A1; in test [1]; in test [2]; in test [3]; in test [4]; on Histamine H1 receptor) was more than 30 µM each time. The AC50 in [5], in test [6], in [7] and in [8] was more than 30 µM in each case.
For `CC1(C)O[C@@H]2C[C@H]3[C@@H]4CCC5=CC(=O)C=C[C@]5(C)[C@H]4[C@@H](O)C[C@]3(C)[C@]2(C(=O)CO)O1` [DESONIDE], the AC50 on Adenosine receptor A1 is more than 10 µM; in [1], more than 30 µM; in [2], more than 10 µM; in [3], more than 10 µM; in test [4], more than 10 µM; at Histamine H1 receptor, more than 10 µM. The AC50 in test [5] was more than 10 µM; in [6] it was more than 30 µM; in [7], more than 30 µM; in test [8] it was more than 10 µM.
